Results reported in PMC9917099, “The Mycotoxin Patulin Inhibits the Mitochondrial Carnitine/Acylcarnitine Carrier (SLC25A20) by Interaction with Cys136 Implications for Human Health” (International Journal of Molecular Sciences, 2023).
“And” between values parts separate entries of the source, which are not always exact repeats. Equal values may be shown once.

Legend:
[1] = Stability of PAT solution stored at room temperature, read out as inhibition of recombinant WT CAC transport; assay type: physicochemical; details: 25 and 50 µM PAT, stored at r.t., 24 and 72 h
From the text: Figure 3A reports the interaction of PAT with the reconstituted WT protein. The inhibition observed after the pretreatment of proteoliposomes with the mycotoxin was not reversed by DTE, confirming the formation of an irreversible covalent bond between CAC and PAT also with the purified recombinant protein (see above Figure 1B). For evaluating the stability of the drug following prolonged storage, we measured the inhibition of the transport activity of WT adding to the samples, at various time, the same PAT solution stored at room temperature (r.t.).
Figure 3 (A) Reversal of PAT inhibition on recombinant protein by DTE. The carnitine homo-exchange transport activity was measured, as described in Materials and Methods, adding 0.1 mM [^3H] carnitine to proteoliposomes reconstituted with the recombinant WT CAC containing 15 mM internal carnitine in the absence or presence of 50 μM PAT, added 30 min before the labelled substrate. 5 mM dithioerythritol (DTE) was added 1 min before the transport assay in a control and PAT treated aliquot, respectively. […] Proteoliposomes reconstituted with the WT CAC were incubated by the same PAT solution (25 and 50 µM) after 0.5 h, 24 h and 72 h (white, grey and black bars, respectively) and then the transport activity was measured by adding 0.1 mM [^3H]-carnitine and stopped after 30 min as described in Materials and Methods.

[2] = molecular target: T1, rat CAC C-less mutant (C23V/C58V/C89S/C136V/C155V/C283S) (Rattus norvegicus, UniProt P97521, C136V/C155V/C23V/C283S/C58V/C89S); assay: Carnitine antiport in proteoliposomes, C-less CAC mutant; assay type: biochemical
T1 construct: made in house; host or cells: E. coli C0214 (pMW7, inclusion bodies)
T1 sequence (P97521 1-301 C23V/C58V/C89S/C136V/C155V/C283S): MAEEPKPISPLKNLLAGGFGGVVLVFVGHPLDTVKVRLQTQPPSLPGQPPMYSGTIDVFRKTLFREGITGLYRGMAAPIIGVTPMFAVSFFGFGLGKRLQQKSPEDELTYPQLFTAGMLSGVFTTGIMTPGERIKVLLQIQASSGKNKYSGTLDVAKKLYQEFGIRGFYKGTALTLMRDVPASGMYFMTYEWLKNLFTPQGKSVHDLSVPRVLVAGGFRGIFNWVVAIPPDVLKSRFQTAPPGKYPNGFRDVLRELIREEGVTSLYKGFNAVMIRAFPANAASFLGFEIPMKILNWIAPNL
Method: To shed light on the interaction between PAT and CAC and verify if specific Cys residues were involved, transport experiments on the recombinant rat and human WT CAC and CAC’s rat Cys mutants were performed. As in the case of the native protein, transport activities were measured as [^3H]-carnitine/carnitine antiport in proteoliposomes. […] The PAT inhibition of the WT recombinant protein was only slightly greater compared to the native protein, although compounds and other molecular systems that affect the mycotoxin binding to the native CAC were absent (see above). For identifying the residues involved in the PAT interaction, site-directed Cys mutants were tested for inhibition (Figure 2). […] The choice of this last mutant was due to the proximity of C155 to C136 during some steps of the substrate translocation mechanism. […]
(§1) For the transport assay, 550 μL of proteoliposomes were passed through a Sephadex G-75 column in order to remove the external substrate. […] After finishing the transport reaction, the external radiolabel substrate was removed by gel filtration chromatography (Sephadex G-75), and the intraliposomal radioactivity was measured by liquid scintillation. Transport was measured at 25 °C. […] Transport rates were measured in 10 min, i.e., within the initial linear range of the time course.

recombinant human WT CAC = molecular target: T2, recombinant human WT CAC (Homo sapiens, UniProt O43772); assay: [3H]-carnitine/carnitine antiport in proteoliposomes with recombinant human WT CAC; assay type: biochemical; details: PAT 30 min, read-out: IC50 of CAC WT inhibition
T2 construct: made in house; host or cells: E. coli C0214 (pMW7, inclusion bodies)
T2 sequence (O43772 1-301): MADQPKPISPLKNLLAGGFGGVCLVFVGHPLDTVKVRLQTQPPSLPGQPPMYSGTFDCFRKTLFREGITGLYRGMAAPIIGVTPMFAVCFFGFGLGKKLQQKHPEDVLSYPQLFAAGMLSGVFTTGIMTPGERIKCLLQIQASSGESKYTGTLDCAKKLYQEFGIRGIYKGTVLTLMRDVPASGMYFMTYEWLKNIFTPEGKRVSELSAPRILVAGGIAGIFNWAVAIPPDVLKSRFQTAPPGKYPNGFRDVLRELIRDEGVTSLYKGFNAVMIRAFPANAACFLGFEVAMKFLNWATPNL
Method: To shed light on the interaction between PAT and CAC and verify if specific Cys residues were involved, transport experiments on the recombinant rat and human WT CAC and CAC’s rat Cys mutants were performed. As in the case of the native protein, transport activities were measured as [^3H]-carnitine/carnitine antiport in proteoliposomes. […] The PAT inhibition of the WT recombinant protein was only slightly greater compared to the native protein, although compounds and other molecular systems that affect the mycotoxin binding to the native CAC were absent (see above). For identifying the residues involved in the PAT interaction, site-directed Cys mutants were tested for inhibition (Figure 2). […]
Figure 2 Dose-response analysis of the PAT inhibition of the CAC recombinant proteins. […] The data are expressed as a percentage of the controls (no PAT addition) and are means ± SD of three independent experiments. […]
as §1

O=C1C=C2C(=CCOC2O)O1 (stereo not drawn) [PAT, 4-hydroxy-4H-furo [3,2c] pyran-2 [6H] -one]
reactivity towards CAC of stored PAT solution [1]: does not change | effect on transport activity [2]: no effect | IC50 (recombinant human WT CAC): 50 µM and ~50 µM
